Data: ChEMBL document CHEMBL4145688, “Potent and Orally Bioavailable Inverse Agonists of RORγt Resulting from Structure-Based Design” (J Med Chem, 2018)
pEC50, pIC50: −log10 of the molar value. Values after ≈ are worked out from the molar mass of the structure shown.

Key:
[1] = target: T1, Nuclear receptor ROR-gamma (Homo sapiens, UniProt P51449); assay: Inverse agonist activity at RORgammat in human TH17 cells assessed as inhibition of IL17 release incubated for 4 days by HTRF assay; assay type: cell-based
T1 sequence (P51449 whole entry): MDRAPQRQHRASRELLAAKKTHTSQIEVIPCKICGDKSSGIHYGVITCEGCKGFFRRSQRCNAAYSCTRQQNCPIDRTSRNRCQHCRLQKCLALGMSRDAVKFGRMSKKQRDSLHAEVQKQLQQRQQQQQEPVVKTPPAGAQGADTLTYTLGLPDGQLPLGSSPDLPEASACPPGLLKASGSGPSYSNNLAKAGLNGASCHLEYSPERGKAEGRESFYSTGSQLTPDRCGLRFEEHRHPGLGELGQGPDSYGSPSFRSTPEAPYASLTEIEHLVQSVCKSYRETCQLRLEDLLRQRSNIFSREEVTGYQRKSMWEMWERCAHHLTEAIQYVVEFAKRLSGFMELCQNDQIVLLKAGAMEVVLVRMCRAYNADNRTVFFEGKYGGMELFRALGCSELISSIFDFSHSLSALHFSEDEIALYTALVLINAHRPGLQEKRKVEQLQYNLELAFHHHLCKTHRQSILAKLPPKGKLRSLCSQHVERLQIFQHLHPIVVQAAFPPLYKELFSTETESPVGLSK

[2] = Distribution coefficient between 1-octanol and aqueous phosphate buffer, logD of the compound in pH 7.4 buffer; assay type: physicochemical; settings: 1-octanol/aqueous phosphate buffer
[3] = Permeability from apical to basolateral side in human Caco2 cells; assay type: ADME, cell-based; settings: for permeability: Caco-2
[4] = Permeability from basolateral to apical side in human Caco2 cells; assay type: ADME, cell-based; settings: for permeability: Caco-2
[5] = Efflux ratio of permeability in human Caco2 cells; assay type: ADME, cell-based; settings: Caco-2
[6] = Unbound fraction in human plasma by equilibrium dialysis; assay type: ADME, cell-free
[7] = Intrinsic clearance in rat hepatocytes assessed per million cells; assay type: ADME, cell-based, Hepatocyte; settings: read-out: CLH
[8] = Stability in pH 5 buffer solution at 37 degC measured over 2 days; assay type: physicochemical; settings: pH 5, 48 h
[9] = Stability in pH 7.4 buffer solution at 37 degC measured over 2 days; assay type: physicochemical; settings: pH 7.4, 48 h
[10] = Stability in pH 8 buffer solution at 37 degC measured over 2 days; assay type: physicochemical; settings: pH 8, 48 h
[11] = target: T2, Nuclear receptor ROR-alpha (Homo sapiens, UniProt P35398); assay: Agonist activity at His6-tcs-human RORalpha LBD assessed as stimulation of biotinylated PGC1alpha (130 to 154 residues) peptide recruitment incubated for 1 hr by HTRF-FRET assay; settings: read-out: IC50 (the source's name)
T2 sequence (P35398 whole entry): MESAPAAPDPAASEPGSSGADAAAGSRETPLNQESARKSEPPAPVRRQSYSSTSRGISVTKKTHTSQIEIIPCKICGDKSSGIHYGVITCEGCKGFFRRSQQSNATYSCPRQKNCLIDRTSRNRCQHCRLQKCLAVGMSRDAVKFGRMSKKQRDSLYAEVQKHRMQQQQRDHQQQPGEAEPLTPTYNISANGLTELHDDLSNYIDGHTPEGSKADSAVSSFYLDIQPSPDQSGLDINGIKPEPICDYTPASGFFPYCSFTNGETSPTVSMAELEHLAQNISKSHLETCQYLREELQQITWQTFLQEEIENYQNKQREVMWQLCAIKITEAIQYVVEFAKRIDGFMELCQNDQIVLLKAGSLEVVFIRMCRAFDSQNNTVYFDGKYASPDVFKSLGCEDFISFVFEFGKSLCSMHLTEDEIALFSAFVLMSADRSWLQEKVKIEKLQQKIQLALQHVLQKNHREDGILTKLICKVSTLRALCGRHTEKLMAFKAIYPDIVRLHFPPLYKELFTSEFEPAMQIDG

[12] = target: T2, Nuclear receptor ROR-alpha; assay: Inverse agonist activity at His6-tcs-human RORalpha LBD assessed as inhibition of biotinylated PGC1alpha (130 to 154 residues) peptide recruitment incubated for 1 hr by HTRF-FRET assay
[13] = target: T3, Nuclear receptor ROR-beta (Homo sapiens, UniProt Q92753); assay: Displacement of [3H]ATRA from 6H-AVI-GST-TEV-human RORbeta (T221 to K470 residues) pre-incubated for 30 mins before [3H]ATRA addition and measurted ater 18 to 23 hrs by scintillation proximity assay
T3 sequence (Q92753 whole entry): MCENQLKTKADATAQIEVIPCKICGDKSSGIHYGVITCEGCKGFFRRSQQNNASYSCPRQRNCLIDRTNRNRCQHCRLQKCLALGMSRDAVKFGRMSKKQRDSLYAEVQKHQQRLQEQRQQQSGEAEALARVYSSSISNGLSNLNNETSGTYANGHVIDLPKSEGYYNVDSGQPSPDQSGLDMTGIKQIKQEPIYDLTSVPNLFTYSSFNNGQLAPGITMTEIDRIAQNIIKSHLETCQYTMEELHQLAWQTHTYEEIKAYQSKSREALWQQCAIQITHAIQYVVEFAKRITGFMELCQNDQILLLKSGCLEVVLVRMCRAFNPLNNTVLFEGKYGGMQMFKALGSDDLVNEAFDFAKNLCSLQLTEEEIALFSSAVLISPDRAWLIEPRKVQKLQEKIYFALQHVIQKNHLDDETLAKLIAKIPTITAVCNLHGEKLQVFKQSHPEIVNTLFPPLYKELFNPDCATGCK

hERG (KCNH2) = hERG (KCNH2) (Homo sapiens, UniProt Q12809); assay: Inhibition of human ERG at 11 uM
Chain of hERG (KCNH2) (Q12809 whole entry): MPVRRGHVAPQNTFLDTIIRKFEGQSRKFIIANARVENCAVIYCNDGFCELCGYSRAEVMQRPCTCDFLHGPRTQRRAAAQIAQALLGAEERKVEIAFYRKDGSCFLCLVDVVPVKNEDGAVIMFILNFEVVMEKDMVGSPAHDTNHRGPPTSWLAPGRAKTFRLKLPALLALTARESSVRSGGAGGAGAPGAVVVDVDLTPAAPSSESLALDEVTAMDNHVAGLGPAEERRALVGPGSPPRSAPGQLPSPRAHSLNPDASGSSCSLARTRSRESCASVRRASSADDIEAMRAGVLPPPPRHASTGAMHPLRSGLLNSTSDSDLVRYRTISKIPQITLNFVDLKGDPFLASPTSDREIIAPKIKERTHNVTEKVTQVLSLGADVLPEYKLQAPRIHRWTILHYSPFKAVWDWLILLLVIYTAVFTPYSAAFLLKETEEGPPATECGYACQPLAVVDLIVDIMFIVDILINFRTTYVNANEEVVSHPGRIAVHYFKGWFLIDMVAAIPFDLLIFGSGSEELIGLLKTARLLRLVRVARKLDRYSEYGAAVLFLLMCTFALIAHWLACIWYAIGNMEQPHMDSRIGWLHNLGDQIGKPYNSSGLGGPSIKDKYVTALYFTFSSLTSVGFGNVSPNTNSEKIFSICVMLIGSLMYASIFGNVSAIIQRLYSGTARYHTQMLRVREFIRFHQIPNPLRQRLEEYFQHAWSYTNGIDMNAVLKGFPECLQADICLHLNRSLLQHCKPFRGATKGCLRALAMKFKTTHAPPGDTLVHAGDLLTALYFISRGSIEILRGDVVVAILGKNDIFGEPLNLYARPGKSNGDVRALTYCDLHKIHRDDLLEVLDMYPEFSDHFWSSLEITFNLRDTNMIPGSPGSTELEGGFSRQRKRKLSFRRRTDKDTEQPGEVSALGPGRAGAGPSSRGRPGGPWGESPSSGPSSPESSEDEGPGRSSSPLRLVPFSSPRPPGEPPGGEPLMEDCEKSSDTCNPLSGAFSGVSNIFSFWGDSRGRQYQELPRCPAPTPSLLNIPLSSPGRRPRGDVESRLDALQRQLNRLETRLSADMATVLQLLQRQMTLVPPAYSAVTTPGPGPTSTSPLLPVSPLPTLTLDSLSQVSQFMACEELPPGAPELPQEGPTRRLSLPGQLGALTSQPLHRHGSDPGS

[14] = Intrinsic clearance in human hepatocytes assessed per million cells; assay type: ADME, cell-based, Hepatocyte; settings: read-out: CLH
[15] = Clearance in Han Wistar rat at 0.5 mg/kg, iv or 1 mg/kg, po; assay type: ADME, organism-based; settings: in vivo
[16] = Half life in Han Wistar rat at 0.5 mg/kg, iv or 1 mg/kg, po; assay type: ADME, organism-based; settings: in vivo
[17] = Volume of distribution at steady state in Han Wistar rat at 0.5 mg/kg, iv or 1 mg/kg, po; assay type: ADME, organism-based; settings: in vivo, read-out: Vdss
[18] = Oral bioavailability in Han Wistar rat at 1 mg/kg; assay type: ADME, organism-based; settings: in vivo
[19] = Oral absorption in Han Wistar rat at 1 mg/kg; assay type: ADME, organism-based; settings: in vivo, read-out: Fabs
[20] = target: T1, Nuclear receptor ROR-gamma
Description: Displacement of [3H]-2-(4-(ethylsulfonyl)phenyl)-N-(4-(2-(methoxymethyl)phenyl)thiophen-2-yl)acetamide from purified N-(HN)6-GST-TCS-human RORgammat (258 to 518 residues) incubated for 16 hrs by scintillation proximity assay

[21] = target: T1, Nuclear receptor ROR-gamma; remark: listed apart in the source
physchem = settings: aqueous buffer, pH 7.4
Description: Solubility in aqueous buffer at pH 7.4

[22] = Cytotoxicity in human Th17 cells assessed as effect on cell viability by cell-titer-Glo luminescent cell viability assay relative to control; assay type: cell-based; settings: read-out: Efficacy
[23] = Selectivity index, ratio of cytotoxicity in human Th17 cells to IC50 for inverse agonist activity at RORgammat in human TH17 cells assessed as inhibition of IL17 release; assay type: toxicity, cell-based
Homo sapiens = assay: Reduction in psoriasis-severity index in psoriasis patient dosed orally during phase 2a study; assay type: functional; parameters: scale not given: the % may be the effect or the level left

pIC50 [1]	logD [2]	fraction unbound [6]	hepatocyte CLint [7]	pEC50 [11]	pIC50 [12]	pIC50 [13]	hepatocyte CLint [14]	clearance [15]	half-life [16]	Vd [17]	bioavailability [18]	Fa [19]	pIC50 [20]	pIC50 [21]	solubility (physchem)	permeability [3]	permeability [4]	Ratio [5]	Structure (SMILES)	inhibition at 11 µM (hERG (KCNH2))	further results
7.96	4.7	0.001	8.9 to 12 µL/min/1e6 cells	< 4.48	5.03	< 5.00	8.5 µL/min/1e6 cells	12 mL/min/kg	258 min	2.4 L/kg	< 1%	< 1.2%	8.52	7.47	0.3 µM (≈ 0.19 µg/mL)	–	–	–	CCS(=O)(=O)c1ccc([C@@H](NC(C)=O)C(=O)Nc2cc(-c3cccnc3OCc3ccc(OC(F)(F)F)cc3)cs2)cc1	8%	Papp A→B ([3]; Caco-2, read-out: permeability): < 0.001 ×10⁻⁶ cm/s; Papp B→A ([4]; Caco-2, read-out: permeability): 42 ×10⁻⁶ cm/s; efflux ratio [5]: > 1500; Stability [8]: Stable; Stability [9]: Stable; Stability [10]: Stable
7.31	3.7	0.002	< 1 µL/min/1e6 cells	< 4.48	6.22	< 5.00	–	–	–	–	–	–	8.15	7.14	3.6 µM (≈ 2.04 µg/mL)	–	–	–	CCS(=O)(=O)c1ccc(C(NC(C)=O)C(=O)Nc2cc(-c3cc(C#N)cnc3OCC(F)(F)F)cs2)cc1 (centres undefined)	3%	–
7.60	–	< 0.0002	40 µL/min/1e6 cells	< 4.48	< 4.48	< 5.00	8.6 µL/min/1e6 cells	46.5 mL/min/kg	84 min	3.8 L/kg	10%	30%	8.15	7.52	0.7 µM (≈ 0.404 µg/mL)	Impermeable	Impermeable	Impermeable	CCS(=O)(=O)c1ccc(CC(=O)Nc2cc(-c3cccnc3OCc3ccc(OC(F)(F)F)cc3)cs2)cc1	0%	Emax [22]: 40%; selectivity ratio [23]: 100
7.19	–	0.0006	7.5 µL/min/1e6 cells	< 4.48	5.21	–	5.9 µL/min/1e6 cells	0.8 mL/min/kg	264 min	0.23 L/kg	36%	36%	8.70	7.52	0.2 µM (≈ 0.102 µg/mL)	Impermeable	Impermeable	Impermeable	CCS(=O)(=O)c1ccc(CC(=O)Nc2cc(-c3cc(C#N)cnc3OCC(F)(F)F)cs2)cc1	47%	–
7.64	4.7	–	18 µL/min/1e6 cells	–	–	–	–	–	–	–	–	–	6.57	5.45	–	–	–	–	CCS(=O)(=O)c1ccc([C@H](NC(C)=O)C(=O)Nc2cc(-c3cccnc3OCc3ccc(OC(F)(F)F)cc3)cs2)cc1	–	Stability [8]: Stable; Stability [9]: Stable; Stability [10]: Stable
6.84	–	< 0.001	20 µL/min/1e6 cells	< 4.48	< 4.48	–	11.9 µL/min/1e6 cells	24 mL/min/kg	96 min	2.8 L/kg	45%	67%	7.48	–	2.5 µM (≈ 1.41 µg/mL)	Impermeable	Impermeable	Impermeable	CCS(=O)(=O)c1ccc(CC(=O)Nc2cc(-c3cccnc3Oc3ccc(OC(F)(F)F)cc3)cs2)cc1	14%	–
–	–	–	–	–	–	–	–	–	–	–	–	–	–	–	–	–	–	–	CCS(=O)(=O)c1ccc(CNC(=O)c2cnc3c(c2)CN(C[C@H]2CC[C@H](C(F)(F)F)CC2)[C@H]3C(C)C)nc1	–	Activity (Homo sapiens): 24%
